Earlier results on one compound are cited in US20240148758A1, “CONTROLLED RELEASE FORMULATIONS OF HIGHLY LIPOPHILIC PHYSIOLOGICALLY ACTIVE SUBSTANCES” (ADD Advanced Drug Delivery Technologies Ltd., priority 2019, published 2024).

For this series the following is noted: decimal logarithm of the n-octanol/water partition coefficient.

On to `C=C(C)[C@@H]1CCC(C)=C[C@H]1c1c(O)cc(CCCCC)cc1O` [Canapure PH, 2-[1R-3-methyl-6R-(1-methylethenyl)-2-cyclohexen-1-yl]-5-pentyl-1,3-benzenediol], for which the “log P” value is reported as “about 6.1”.
